Results published in US9458176B2, “Tetrahydroimidazo(1,5-D)[1,4]oxazepine derivative” (Eisai R&D Management Co., Ltd., priority 2013, dated 2016).

Target: human mGluR2 (Homo sapiens (Human), UniProt Q14416)
Assay: [35S]GTPγS binding assay (Affinity to mGluR2)
Format: biochemical
Conditions: cell membrane fraction of HEK293 cells stably expressing human mGluR2, glutamic acid 10 μM
How it was run: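 Membranes from HEK293 cells stably co-expressing human mGluR2 and SLC1A3 (1.8–3 μg protein) preincubated with compound 30 min at RT, then stimulated with 10 μM glutamate 15 min; [35S]GTPγS (0.8 kBq) with WGA-SPA beads 1 h, buffer with 3 μM GDP, 100 mM NaCl, 1 mM MgCl2. IC50 from inhibition of glutamate-specific binding.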

[1] = inhibition of specific [35S]GTPγS binding

human mGluR2, sequence (Q14416 19-872): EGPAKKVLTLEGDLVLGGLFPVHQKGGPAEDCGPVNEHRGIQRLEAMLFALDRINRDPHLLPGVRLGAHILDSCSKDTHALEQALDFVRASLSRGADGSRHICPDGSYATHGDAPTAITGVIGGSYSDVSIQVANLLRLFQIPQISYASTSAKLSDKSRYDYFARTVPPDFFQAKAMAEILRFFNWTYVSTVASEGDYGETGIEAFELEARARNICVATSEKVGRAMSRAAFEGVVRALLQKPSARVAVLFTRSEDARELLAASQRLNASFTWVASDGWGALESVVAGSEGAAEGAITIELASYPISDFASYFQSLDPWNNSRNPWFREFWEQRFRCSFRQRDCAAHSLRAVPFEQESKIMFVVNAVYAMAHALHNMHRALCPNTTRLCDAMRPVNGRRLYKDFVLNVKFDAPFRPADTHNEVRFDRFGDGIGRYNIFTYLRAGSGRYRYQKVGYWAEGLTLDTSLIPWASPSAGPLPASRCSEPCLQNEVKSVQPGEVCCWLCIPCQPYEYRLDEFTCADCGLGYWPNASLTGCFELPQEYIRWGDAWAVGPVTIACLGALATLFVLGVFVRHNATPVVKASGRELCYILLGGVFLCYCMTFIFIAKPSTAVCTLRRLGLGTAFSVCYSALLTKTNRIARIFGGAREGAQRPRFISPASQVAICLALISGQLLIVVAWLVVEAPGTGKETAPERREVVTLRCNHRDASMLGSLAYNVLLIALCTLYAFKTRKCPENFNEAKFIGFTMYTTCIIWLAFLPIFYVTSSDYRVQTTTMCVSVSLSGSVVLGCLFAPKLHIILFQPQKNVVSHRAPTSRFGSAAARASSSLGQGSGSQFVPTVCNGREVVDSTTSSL

Structure (SMILES) | IC50 | IC50 [1]
Cc1cc(-c2nc(-c3ccc(OC(F)F)c(F)c3)n3c2CCOCC3)cc(C)n1 [Example 119] | 31.8 nM | –
Cc1cc(-c2nc(-c3ccc(OC(F)F)c(F)c3)n3c2CCOCC3)ccn1 [Example 120] | 47.2 nM | –
COc1cc(-c2nc(-c3ccnc(C)c3)c3n2CCOCC3)ccc1C(F)(F)F [Example 123] | 36 nM | –
Cc1cc(-c2nc(-c3ccc(C(F)(F)F)c(C)c3)n3c2CCO[C@H](C)C3)cc(C)n1 [Example 124] | 4.5 nM | –
Cc1cc(-c2nc(-c3ccc(Cl)c(C(F)F)c3)n3c2CCOCC3)cc(C)n1 [Example 125] | 16.5 nM | –
COc1cc(-c2nc(-c3cc(C)nc(C)c3)c3n2CCOCC3)ccc1OC(F)F [Example 127] | 12.1 nM | –
Cc1cc(-c2nc(-c3ccc(C(F)(F)F)c(Cl)c3)n3c2CCO[C@H](C)C3)ccn1 [Example 132] | 33.3 nM | –
Cc1cc(-c2nc(-c3ccc(OC(F)(F)F)c(Cl)c3)n3c2CCO[C@H](C)C3)cc(C)n1 [Example 133] | 4.4 nM | –
Cc1cc(-c2nc(-c3ccc(C(F)(F)F)c(F)c3)n3c2CCO[C@H](C)C3)cc(C)n1 [Example 134] | 27.8 nM | –
COc1cc(-c2nc(-c3cc(C)nc(C)c3)c3n2C[C@@H](C)OCC3)ccc1F [Example 136] | 33.9 nM | –
Cc1cc(-c2nc(-c3ccc(C(F)F)c(Cl)c3)n3c2CCOCC3)cc(C)n1 [Example 137] | 18.7 nM | –
Cc1cc(-c2nc(-c3ccc(F)c(Cl)c3)n3c2CCO[C@H](C)C3)cc(C)n1 [Example 138] | 21.2 nM | –
Cc1cc(-c2nc(-c3ccc(C(F)(F)F)c(F)c3)n3c2CCO[C@H](C)C3)ccn1 [Example 139] | 47.5 nM | –
COc1cc(-c2nc(-c3ccnc(C)c3)c3n2C[C@@H](C)OCC3)ccc1F [Example 141] | – | 51.9 nM
Cc1cc(-c2nc(-c3ccc(F)c(C(F)(F)F)c3)n3c2CCO[C@H](C)C3)cc(C)n1 [Example 143] | – | 13.6 nM
Cc1cc(-c2nc(-c3ccc(OC4CC4)c(OC(F)(F)F)c3)n3c2CCOCC3)cc(C)n1 [Example 144] | – | 27.7 nM
Cc1cc(-c2nc(-c3ccc(C(F)F)c(Cl)c3)n3c2CCO[C@H](C)C3)cc(C)n1 [Example 146] | – | 22.2 nM
Cc1cc(-c2nc(-c3ccc(OC(F)(F)F)c(F)c3)n3c2CCO[C@H](C)C3)cc(C)n1 [Example 147] | – | 10.5 nM
COc1cc(-c2nc(-c3cc(C)nc(C)c3)c3n2C[C@@H](C)OCC3)ccc1OC(F)F [Example 148] | – | 9.6 nM
COc1cc(-c2nc(-c3ccnc(C)c3)c3n2C[C@@H](C)OCC3)ccc1OC(F)F [Example 149] | – | 18.9 nM
Cc1cc(-c2nc(-c3ccc(Cl)c(C(F)(F)F)c3)n3c2CCO[C@H](C)C3)ccn1 [Example 152] | – | 14.5 nM
Cc1cc(-c2nc(-c3ccc(OC(F)(F)F)c(Cl)c3)n3c2CCO[C@H](C)C3)ccn1 [Example 153] | – | 3 nM
COc1ccc(-c2nc(-c3cc(C)nc(C)c3)c3n2C[C@@H](C)OCC3)cc1OC(F)(F)F [Example 154] | – | 6.7 nM
COc1ccc(-c2nc(-c3ccnc(C)c3)c3n2C[C@@H](C)OCC3)cc1OC(F)(F)F [Example 155] | – | 19.2 nM
COc1cc(-c2nc(-c3cc(C)nc(CO)c3)c3n2C[C@@H](CF)OCC3)ccc1C(F)(F)F [Example 156] | – | 7.3 nM
Cc1cc(-c2nc(-c3ccc(F)c(OC(F)(F)F)c3)n3c2CCO[C@H](C)C3)cc(C)n1 [Example 157] | – | 12.7 nM

Structure (SMILES) | IC50 | IC50 [1]
Cc1cc(-c2nc(-c3ccc(F)c(OC(F)(F)F)c3)n3c2CCO[C@H](C)C3)ccn1 [Example 158] | – | 44.6 nM
Cc1cc(-c2nc(-c3ccc(OC4CC4)c(Cl)c3)n3c2CCO[C@H](C)C3)ccn1 [Example 159] | – | 5 nM
COc1cc(-c2nc(-c3ccnc(C)c3)c3n2C[C@@H](CF)OCC3)ccc1C(F)F [Example 160] | – | 24.1 nM
Cc1cc(-c2nc(-c3ccc(OC(F)(F)F)c(C)c3)n3c2CCO[C@H](CF)C3)cc(C)n1 [Example 161] | – | 4 nM
COc1cc(-c2nc(-c3cc(C)nc(C)c3)c3n2C[C@@H](CF)OCC3)ccc1OC(F)F [Example 163] | – | 15.8 nM
COc1cc(-c2nc(-c3ccnc(C)c3)c3n2C[C@@H](CF)OCC3)ccc1OC(F)F [Example 164] | – | 36.8 nM
Cc1cc(-c2nc(-c3ccc(OC(F)(F)F)c(C#N)c3)n3c2CCO[C@H](C)C3)cc(C)n1 [Example 168] | – | 4.2 nM
Cc1cc(-c2nc(-c3ccc(OC(F)(F)F)c(C#N)c3)n3c2CCO[C@H](C)C3)ccn1 [Example 169] | – | 4.6 nM
Cc1cc(-c2nc(-c3ccc(OC(F)(F)F)c(F)c3)n3c2CCO[C@H](CF)C3)cc(CO)n1 [Example 170] | – | 43.1 nM
Cc1cc(-c2nc(-c3ccc(F)c(Cl)c3)n3c2CCO[C@H](CF)C3)cc(C)n1 [Example 171] | – | 26.7 nM
Cc1cc(-c2nc(-c3ccc(F)c(Cl)c3)n3c2CCO[C@H](CF)C3)ccn1 [Example 172] | – | 38.3 nM
Cc1cc(-c2nc(-c3ccc(F)c(C(F)(F)F)c3)n3c2CCO[C@H](CF)C3)cc(C)n1 [Example 173] | – | 19.2 nM
Cc1cc(-c2nc(-c3ccc(F)c(C(F)(F)F)c3)n3c2CCO[C@H](CF)C3)ccn1 [Example 174] | – | 24.3 nM
COc1cc(-c2nc(-c3cc(C)nc(C(F)F)c3)c3n2C[C@@H](CF)OCC3)ccc1Cl [Example 176] | – | 38.8 nM
COc1ccc(-c2nc(-c3cc(C)nc(C(F)F)c3)c3n2C[C@@H](C)OCC3)cc1C [Example 178] | – | 17.8 nM
Cc1cc(-c2nc(-c3ccc(OC(F)(F)F)c(C)c3)n3c2CCO[C@H](C)C3)cc(CO)n1 [Example 179] | – | 17.9 nM
Cc1cc(-c2nc(-c3ccc(OC(F)(F)F)c(F)c3)n3c2CCO[C@H](C)C3)cc(CO)n1 [Example 180] | – | 100 nM
Cc1cc(-c2nc(-c3ccc(OC(F)F)c(F)c3)n3c2CCO[C@H](C)C3)ccn1 [Example 182] | – | 19.3 nM
Cc1cc(-c2nc(-c3ccc(C)c(C(F)(F)F)c3)n3c2CCO[C@H](C)C3)cc(C)n1 [Example 183] | – | 7.4 nM
Cc1cc(-c2nc(-c3ccc(F)c(OC(F)F)c3)n3c2CCO[C@H](C)C3)cc(C)n1 [Example 184] | – | 13.7 nM
Cc1cc(-c2nc(-c3ccc(C(F)(F)F)c(C)c3)n3c2CCO[C@H](CF)C3)ccn1 [Example 187] | – | 19.3 nM
Cc1cc(-c2nc(-c3ccc(OC(F)F)c(C)c3)n3c2CCO[C@H](CF)C3)cc(C(F)F)n1 [Example 188] | – | 20.8 nM
COc1cc(-c2nc(-c3cc(C)nc(C(F)F)c3)c3n2C[C@@H](C)OCC3)ccc1C(F)F [Example 189] | – | 15.1 nM
COc1ccc(-c2nc(-c3cc(C)nc(C(F)F)c3)c3n2C[C@@H](C)OCC3)cc1Cl [Example 190] | – | 42.2 nM
COc1cc(-c2nc(-c3cc(C)nc(CO)c3)c3n2C[C@@H](CF)OCC3)ccc1OC(F)F [Example 194] | – | 108 nM

Results, then the molecule that gave them:

IC50 | IC50 [1] | Structure (SMILES)
40.9 nM | – | COc1cc(-c2nc(-c3cc(C)nc(C)c3)c3n2CCOCC3)ccc1C(F)F [Example 121]
22.1 nM | – | COc1cc(-c2nc(-c3cc(C)nc(C)c3)c3n2CCOCC3)ccc1C(F)(F)F [Example 122]
8.4 nM | – | Cc1cc(-c2nc(-c3ccc(Cl)c(C(F)F)c3)n3c2CCOCC3)ccn1 [Example 126]
9.1 nM | – | COc1cc(-c2nc(-c3cc(C)nc(C)c3)c3n2C[C@@H](C)OCC3)ccc1C(F)F [Example 128]
15.7 nM | – | Cc1cc(-c2nc(-c3ccc(C(F)(F)F)c(Cl)c3)n3c2CCO[C@H](C)C3)cc(C)n1 [Example 129]
26 nM | – | Cc1cc(-c2nc(-c3ccc(Cl)c(C#N)c3)n3c2CCO[C@H](C)C3)cc(C)n1 [Example 130]
25.5 nM | – | Cc1cc(-c2nc(-c3ccc(Cl)c(C(F)F)c3)n3c2CCO[C@H](C)C3)cc(C)n1 [Example 131]
36.9 nM | – | Cc1cc(-c2nc(-c3ccc(OC4CC4)c(Cl)c3)n3c2CCOCC3)cc(C)n1 [Example 135]
5.7 nM | – | Cc1cc(-c2nc(-c3ccc(Cl)c(C(F)(F)F)c3)n3c2CCO[C@H](C)C3)cc(C)n1 [Example 140]
– | 20.2 nM | Cc1cc(-c2nc(-c3ccc(C(F)(F)F)cc3)n3c2CCO[C@H](C)C3)cc(C)n1 [Example 142]
– | 45.5 nM | Cc1cc(-c2nc(-c3ccc(F)c(Cl)c3)n3c2CCO[C@H](C)C3)ccn1 [Example 145]
– | 26.4 nM | Cc1cc(-c2nc(-c3ccc(F)c(C(F)(F)F)c3)n3c2CCO[C@H](C)C3)ccn1 [Example 151]
– | 5 nM | Cc1cc(-c2nc(-c3ccc(OC(F)(F)F)c(C)c3)n3c2CCO[C@H](CF)C3)ccn1 [Example 162]
– | 9.4 nM | Cc1cc(-c2nc(-c3ccc(OC(F)(F)F)c(F)c3)n3c2CCO[C@H](CF)C3)cc(C)n1 [Example 165]
– | 15.2 nM | Cc1cc(-c2nc(-c3ccc(OC(F)(F)F)c(F)c3)n3c2CCO[C@H](CF)C3)ccn1 [Example 166]
– | 1.8 nM | Cc1cc(-c2nc(-c3ccc(OC4CC4)c(Cl)c3)n3c2CCO[C@H](CF)C3)cc(C)n1 [Example 167]
– | 18.5 nM | COc1ccc(-c2nc(-c3cc(C)nc(C)c3)c3n2C[C@@H](CF)OCC3)cc1OC(F)(F)F [Example 175]
– | 29.4 nM | Cc1cc(-c2nc(-c3ccc(OC(F)F)c(C)c3)n3c2CCO[C@H](C)C3)cc(CO)n1 [Example 177]
– | 16.1 nM | Cc1cc(-c2nc(-c3ccc(OC(F)F)c(F)c3)n3c2CCO[C@H](C)C3)cc(C)n1 [Example 181]
– | 19.5 nM | Cc1cc(-c2nc(-c3ccc(F)c(OC(F)F)c3)n3c2CCO[C@H](C)C3)ccn1 [Example 185]
– | 19.3 nM | Cc1cc(-c2nc(-c3ccc(C(F)(F)F)c(C)c3)n3c2CCO[C@H](CF)C3)cc(C)n1 [Example 186]
– | 5 nM | COc1cc(-c2nc(-c3cc(C)nc(C(F)F)c3)c3n2C[C@@H](C)OCC3)ccc1OC(F)F [Example 192]
– | 9 nM | COc1cc(-c2nc(-c3cc(C)nc(C(F)F)c3)c3n2C[C@@H](CF)OCC3)ccc1OC(F)F [Example 193]
